From US20180057507A1, “INHIBITORS OF DUAL LEUCINE ZIPPER (DLK) KINASE FOR THE TREATMENT OF DISEASE” (Board of Regents, The University of Texas System, priority 2016, published 2018)

Tests used:
human DLK [1] = target: T1, human DLK (Homo sapiens, UniProt Q12852); test: Phospho-cJun Cellular Assay; assay type: cell-based; set-up: expressed in transfected cells; details: HEK293 cells stably transfected with Dox-inducible human DLK; p-cJun (Ser63); 5 h compound incubation
T1 sequence (Q12852 1-859): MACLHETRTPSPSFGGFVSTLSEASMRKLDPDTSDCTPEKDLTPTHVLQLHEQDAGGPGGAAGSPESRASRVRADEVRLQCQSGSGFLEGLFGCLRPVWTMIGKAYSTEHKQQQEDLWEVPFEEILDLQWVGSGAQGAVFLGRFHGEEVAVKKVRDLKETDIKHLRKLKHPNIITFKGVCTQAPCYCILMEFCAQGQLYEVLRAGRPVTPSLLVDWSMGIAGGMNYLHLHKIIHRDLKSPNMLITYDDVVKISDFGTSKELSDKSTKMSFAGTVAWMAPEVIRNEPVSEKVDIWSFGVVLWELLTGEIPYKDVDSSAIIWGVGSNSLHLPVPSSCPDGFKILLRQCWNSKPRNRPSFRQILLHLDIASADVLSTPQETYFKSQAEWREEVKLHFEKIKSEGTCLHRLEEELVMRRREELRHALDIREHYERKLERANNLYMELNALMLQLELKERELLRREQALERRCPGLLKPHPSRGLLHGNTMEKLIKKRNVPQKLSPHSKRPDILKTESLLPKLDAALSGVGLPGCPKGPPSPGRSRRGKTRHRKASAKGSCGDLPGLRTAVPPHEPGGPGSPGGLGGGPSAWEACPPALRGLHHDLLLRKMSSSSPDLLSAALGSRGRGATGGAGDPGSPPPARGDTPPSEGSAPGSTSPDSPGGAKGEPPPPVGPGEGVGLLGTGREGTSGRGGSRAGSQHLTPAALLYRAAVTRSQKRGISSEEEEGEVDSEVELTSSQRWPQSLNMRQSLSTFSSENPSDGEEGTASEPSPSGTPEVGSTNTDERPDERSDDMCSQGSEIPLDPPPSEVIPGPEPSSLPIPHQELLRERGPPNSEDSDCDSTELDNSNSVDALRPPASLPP
Outline: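 HEK293 cells with doxycycline-induced human DLK (induced 20 h; uninduced cells as negative control) treated with compound for 5 h at 37 °C. Phospho-cJun (Ser63) measured in lysates with detection-antibody kit; IC50 from variable-slope dose-response fit.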

human DLK [2] = target: T1, human DLK; test: DLK Kd Determinations (KINOMEscan KdELECT, DiscoveRx); set-up: full length of human DLK (amino acids 1-859); host or cells: transiently transfected HEK293 cells; unpurified extract; details: fusion protein of full length human DLK (amino acids 1-859) and NFkB DNA binding domain; qPCR readout; duplicate
Outline: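 Kd values were fitted by Hill equation (slope −1) from duplicate 11-point 3-fold dilutions starting at 30,000 nM. Bead-immobilized ligand competed with compound for DNA-tagged full-length human DLK fusion in HEK293 extract (final DMSO 0.9%, 1 h, room temperature), with qPCR readout of bound kinase.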

Structure (SMILES) | IC50 (human DLK [1]) | Kd (human DLK [2])
COCCN1C[C@@H]2[C@H](C1)[C@H]2n1cc(-c2cnc(N)c(C(F)(F)F)c2)nc1CC(F)(F)F [Example 121, 5-(1-((1R,5S,6s)-3-(2-methoxyethyl)-3-azabicyclo[3.1.0]hexan-6-yl)-2-(2,2,2-trifluoroethyl)-1H-imidazol-4-yl)-3-(trifluoromethyl)pyridin-2-amine] | 1590 nM | 49 nM
Nc1ncc(-c2cn([C@H]3[C@@H]4CN(C5CCOCC5)C[C@@H]43)c(C3CC3)n2)cc1C(F)(F)F [Example 74, 5-(2-cyclopropyl-1-((1R,5S,6s)-3-(tetrahydro-2H-pyran-4-yl)-3-azabicyclo[3.1.0]hexan-6-yl)-1H-imidazol-4-yl)-3-(trifluoromethyl)pyridin-2-amine] | 1350 nM | 54 nM
CC(C)Cc1nc(-c2cnc(N)c(OC(F)(F)F)c2)cn1[C@H]1[C@@H]2CC(N3CCN(CCF)CC3)C[C@@H]21 (single isomer, unassigned) [Example 159b, 5-(1-(3-(4-(2-fluoroethyl)piperazin-1-yl)bicyclo[3.1.0]hexan-6-yl)-2-isobutyl-1H-imidazol-4-yl)-3-(trifluoromethoxy)pyridin-2-amine] | 1550 nM | 49 nM
CC(C)c1nc(-c2cnc(N)c(C(F)(F)F)c2)cn1C1CCC1 [Example 7, 5-[1-cyclobutyl-2-(propan-2-yl)-1H-imidazol-4-yl]-3-(trifluoromethyl)pyridin-2-amine] | 1070 nM | 66 nM
Nc1ncc(-c2cn([C@H]3[C@@H]4CN(C5CCOCC5)C[C@@H]43)c(CC3CC3)n2)cc1C(F)(F)F [Example 76, 5-(2-(cyclopropylmethyl)-1-((1R,5S,6s)-3-(tetrahydro-2H-pyran-4-yl)-3-azabicyclo[3.1.0]hexan-6-yl)-1H-imidazol-4-yl)-3-(trifluoromethyl)pyridin-2-amine] | 760 nM | 51 nM
CC(C)c1nc(-c2cnc(N)c(OC(F)(F)F)c2)cn1[C@H]1[C@@H]2CN(C3COC3)C[C@@H]21 [Example 80, 5-(2-isopropyl-1-((1R,5S,6s)-3-(oxetan-3-yl)-3-azabicyclo[3.1.0]hexan-6-yl)-1H-imidazol-4-yl)-3-(trifluoromethoxy)pyridin-2-amine] | 1670 nM | 42 nM
Nc1ncc(-c2cn([C@H]3[C@@H]4CN(CCF)C[C@@H]43)c(CC3CC3)n2)cc1OC(F)F [Example 116, 5-(2-(cyclopropylmethyl)-1-((1R,5S,6s)-3-(2-fluoroethyl)-3-azabicyclo[3.1.0]hexan-6-yl)-1H-imidazol-4-yl)-3-(difluoromethoxy)pyridin-2-amine] | 1440 nM | 53 nM
CC(C)c1nc(-c2cnc(N)c(C(F)(F)F)c2)cn1[C@H]1[C@@H]2CC(O)C[C@@H]21 (single isomer, unassigned) [Example 48a, 6-(4-(6-amino-5-(trifluoromethyl)pyridin-3-yl)-2-isopropyl-1H-imidazol-1-yl)bicyclo[3.1.0]hexan-3-ol] | 1590 nM | 84 nM
CCC(O)c1nc(-c2cnc(N)c(C(F)(F)F)c2)cn1C1CCC1 (centres unmarked) [Example 22, 1-(4-(6-amino-5-(trifluoromethyl)pyridin-3-yl)-1-cyclobutyl-1H-imidazol-2-yl)propan-1-ol] | 550 nM | 18 nM
CC(C)c1nc(-c2cnc(N)c(C(F)(F)F)c2)cn1[C@H]1[C@@H]2CC(N3CCN(C)CC3)C[C@@H]21 (some centres unmarked) [Example 144, 5-(2-isopropyl-1-(3-(4-methylpiperazin-1-yl)bicyclo[3.1.0]hexan-6-yl)-1H-imidazol-4-yl)-3-(trifluoromethyl)pyridin-2-amine] | 859 nM | 38 nM
CN1CCN(C2CC3C(C2)C3n2cc(-c3cnc(N)c(OC(F)F)c3)nc2C2CC2)CC1 (centres unmarked) [Example 137, 5-(2-cyclopropyl-1-(3-(4-methylpiperazin-1-yl)bicyclo[3.1.0]hexan-6-yl)-1H-imidazol-4-yl)-3-(difluoromethoxy)pyridin-2-amine] | 710 nM | 22 nM
CN1CCN(C2C[C@@H]3[C@H](C2)[C@H]3n2cc(-c3cnc(N)c(C(F)(F)F)c3)nc2CC2CC2)CC1 (single isomer, unassigned) [Example 161a, 5-(2-(cyclopropylmethyl)-1-(3-(4-methylpiperazin-1-yl)bicyclo[3.1.0]hexan-6-yl)-1H-imidazol-4-yl)-3-(trifluoromethyl)pyridin-2-amine] | 454 nM | 19 nM
CC(C)c1nc(-c2cnc(N)c(C(F)(F)F)c2)cn1[C@H]1[C@@H]2CC(O)C[C@@H]21 (single isomer, unassigned) [Example 48b, 6-(4-(6-amino-5-(trifluoromethyl)pyridin-3-yl)-2-isopropyl-1H-imidazol-1-yl)bicyclo[3.1.0]hexan-3-ol] | 1240 nM | 59 nM
CC(C)c1nc(-c2cnc(N)c(C(F)(F)F)c2)cn1[C@H]1[C@@H]2CC(N3CCOC[C@@H]3C)C[C@@H]21 (stereo partly drawn) [Example 143, 5-(2-isopropyl-1-(3-((S)-3-methylmorpholino)bicyclo[3.1.0]hexan-6-yl)-1H-imidazol-4-yl)-3-(trifluoromethyl)pyridin-2-amine] | 1510 nM | 19 nM
CC(C)c1nc(-c2cnc(N)c(C(F)(F)F)c2)cn1[C@H]1[C@@H]2CC(N3CCOCC3)C[C@@H]21 (single isomer, unassigned) [Example 127b] | 633 nM | 61 nM
CCCc1nc(-c2cnc(N)c(C(F)(F)F)c2)cn1[C@H]1[C@@H]2CN(CCF)C[C@@H]21 [Example 84, 5-(1-((1R,5S,6s)-3-(2-fluoroethyl)-3-azabicyclo[3.1.0]hexan-6-yl)-2-propyl-1H-imidazol-4-yl)-3-(trifluoromethyl)pyridin-2-amine] | 1610 nM | 160 nM
Nc1ncc(-c2cn(C3CC4(CC(N5CCOCC5)C4)C3)c(C3CC3)n2)cc1C(F)(F)F (centres unmarked) [Example 40, 5-(2-cyclopropyl-1-(6-morpholinospiro[3.3]heptan-2-yl)-1H-imidazol-4-yl)-3-(trifluoromethyl)pyridin-2-amine] | 587 nM | 42 nM
Nc1ncc(-c2cn([C@H]3[C@@H]4CC(N5CCN(CCF)CC5)C[C@@H]43)c(C3CC3)n2)cc1OC(F)(F)F (single isomer, unassigned) [Example 154b, 5-(2-cyclopropyl-1-(3-(4-(2-fluoroethyl)piperazin-1-yl)bicyclo[3.1.0]hexan-6-yl)-1H-imidazol-4-yl)-3-(trifluoromethoxy)pyridin-2-amine] | 597 nM | 17 nM
COCCN1C[C@@H]2[C@H](C1)[C@H]2n1cc(-c2cnc(N)c(OC(F)(F)F)c2)nc1C1CC1 [Example 68, 5-(2-cyclopropyl-1-((1R,5S,6s)-3-(2-methoxyethyl)-3-azabicyclo[3.1.0]hexan-6-yl)-1H-imidazol-4-yl)-3-(trifluoromethoxy)pyridin-2-amine] | 745 nM | 77 nM
Nc1ncc(-c2cn([C@H]3[C@@H]4CN(C5COC5)C[C@@H]43)c(C3CC3)n2)cc1OC(F)(F)F [Example 65, 5-(2-cyclopropyl-1-((1R,5S,6s)-3-(oxetan-3-yl)-3-azabicyclo[3.1.0]hexan-6-yl)-1H-imidazol-4-yl)-3-(trifluoromethoxy)pyridin-2-amine] | 1050 nM | 32 nM
CC(C)c1nc(-c2cnc(N)c(C(F)(F)F)c2)cn1C1CC2(CC(N3CCOCC3)C2)C1 (centres unmarked) [Example 38, 5-(2-isopropyl-1-(6-morpholinospiro[3.3]heptan-2-yl)-1H-imidazol-4-yl)-3-(trifluoromethyl)pyridin-2-amine] | 1140 nM | 25 nM
CC(C)(C)Cc1nc(-c2cnc(N)c(C(F)(F)F)c2)cn1[C@H]1[C@@H]2CN(CCF)C[C@@H]21 [Example 85, 5-(1-((1R,5S,6s)-3-(2-fluoroethyl)-3-azabicyclo[3.1.0]hexan-6-yl)-2-neopentyl-1H-imidazol-4-yl)-3-(trifluoromethyl)pyridin-2-amine] | 594 nM | 60 nM
